From patent publication US20240398738A1, “MANIPULATION OF THE RETINOIC ACID SIGNALING PATHWAY” (THE REGENTS OF THE UNIVERSITY OF CALIFORNIA, priority 2017, published 2024)
“Also recorded” adds a separate entry of the source.

Assays:
RAR = RAR dual fluorescent reporter (RARE-SV40-GFP / CMV-RFP) in HEK293 cells; type: cell-based, human
RGCs in WT retina = assay: YO-PRO-1 loading assay (dye permeability of RGCs) in WT retina after intravitreal injection; type: in vivo, mouse
Protocol: (§1) Intravitreal Injections. Before injection, mice were anesthetized with isoflurane (2%) and their pupils were dilated with tropicamide (1%) and phenylephrine (2.5%). Proparacaine (0.5%) was used as a topical analgesic. Genteal was applied under a glass coverslip to keep the cornea lubricated. An incision was made through the sclera below the ora serrata with a 30G needle and ˜1 μl of solution was injected into the vitreous with a blunt-ended 33G Hamilton syringe. After injection, the antibiotic tobramycin (0.3%) was applied to the eye. Final drug concentrations after intravitreal injection were: all-trans retinoic acid (ATRA, 100 nM), liarozole (100 μM), diethylaminobenzaldehyde (DEAB, 20 μM), citral (50 μM), BMS-493 (500 nM), and retinaldehyde (1 μM). The above values correspond to the final concentration in the eye after injecting 1 μl of drug accounting for a 5-fold dilution. An injection of PBS including 1% DMSO was used as vehicle control.
Yo-PRO-1 Loading Assay. After dissection, retinas were cut into thirds and mounted on a windowed nitrocellulose filter paper. Retinas were treated with 200 nM Yo-PRO-1 (Life Technologies) in oxygenated ACSF for 15 minutes, followed by treatment and then treated with nuclear ID (Enzo Life Sciences) at a 1:500 dilution for 3 minutes. ACSF was perfused continuously at 3 ml/min for a period of 5 minutes to wash away excess dye. In experiments employing TNP-ATP (200 μm), the retinas was pretreated with the compound for ten minutes before beginning YO-PRO-1 treatment.
Image analysis. All image analysis was performed using ImageJ or Fiji software (55,56). Yo-PRO-1 loading assay, ROIs were manually selected using the nuclear-ID channel based upon morphological characteristics. This was performed after computationally flattening the retina by performing a maximum Z projection onto a single plane. Following this, a background subtraction was performed with a rolling radius of 50 pixels. Cells identified as vascular endothelial cells or pericytes were not included in the analysis. This was confirmed using transillumination. A threshold for YO-PRO-1 loading was established by measuring the level of autofluorescence of untreated retinas in each channel and finding a baseline value with +2SD being the threshold for a YO-PRO-1 positive cell. Nuclear-ID was used to count the total number of cells within a field of view. The percentage of cells above the threshold was then calculated for comparison. For analysis of RARE double reporter virus assay, ROIs were manually selected on the RFP channel first and then superimposed to the GFP channel. Single cell values for both RFP and GFP were filtered by using a RFP minimum threshold established in naive unlabeled retinas.
(§2) Injections. Intravitreal injections: Adult mice and rats were intravitreally injected with drugs or viruses. Before injection, animals were anesthetized with isoflurane (2%) and their pupils were dilated with tropicamide (1%) and phenylephrine (2.5%). Proparacaine (0.5%) was used as a topical analgesic. Genteal was applied under a glass coverslip to keep the cornea lubricated. An incision was made through the sclera below the ora serrata with a 30G needle. Solutions were injected into the vitreous with a blunt-ended 33G Hamilton syringe. After injection, the antibiotic tobramycin (0.3%) was applied to the eye. Final drug concentrations (after 5-fold dilution in the vitreous) were: 100 nM all-trans retinoic acid (ATRA), 100 μM liarozole (24), 20 μM diethylaminobenzaldehyde (DEAB) (28,93), 50 μM citral, 500 nM BMS 493 (85), 1 μM retinaldehyde, and vehicle comprising of 1× phosphate buffered saline (PBS) containing 1% dimethyl sulfoxide (DMSO). Intravitreal injections were performed using AAV2 serotype only. WT and rd1 mice were injected with the RAR-reporter virus or the RARDN virus, at age 1-1.5 month-old. WT and s334ter rats were injected with the RAR-reporter virus at age 3-4 month-old. Final volume of injections was 1-1.5 μL for mice and 5 μL for rats. […]

RGCs in rd1 retina = assay: MEA recording of photoswitch (QAQ, BENAQ) photosensitization in rd1 retina; type: in vivo, mouse
Protocol: as §1
Multi Electrode Array Recordings. For extracellular recordings, a flat-mounted retina was placed ganglion cell layer down onto a 60-electrode Multi-Electrode Array (MEA 1060-2-BC, Multi-Channel Systems). After mounting the retina, photoswitches were applied for 30 min, followed by a 15 min wash. BENAQ was applied at a concentration of 100 μM and QAQ at 300 μM. A solution containing a mixture of neurotransmitter receptor blockers isolated RGCs from synaptic inputs: (in μM) 10 AP4, 40 DNQX, 30 AP5, 10 SR-95531, 50 TPMPA, 10 strychnine, and 50 tubocurarine. Extracellular spikes were high-pass filtered at 200 Hz and digitized at 20 kHz and were counted when exceeding 4 SD from the mean background voltage signal. Typically, each electrode recorded spikes from one to three individual RGCs. Principal component analysis of the spike waveforms was used for sorting spikes generated by individual cells (Offline Sorter, Plexon). Stimulation light was generated from a mercury arc lamp. Unfiltered broad spectrum light was used for BENAQ-treated retinas. Narrow band optical filters (Chroma) were used to deliver alternating intervals of 380 nm and 500 nm for stimulation of QAQ-treated as described previously (5,12). The Photoswitch Index (5) (PI) was established for individual retinas in light/darkness for treatment with BENAQ or in 380 nm/500 nm light for treatment with QAQ (11,12).
as §2, with “month-old.” for “month-old. WT and s334ter rats were injected with the RAR-reporter virus at age 3-4 month-old. Final volume of injections was 1-1.5 μL for mice and 5 μL for rats.”

| Compound | GFP expression of the RAR reporter (RAR; HEK293, ATRA 1 μM, 48 hrs) | increase in GFP to RFP ratio (RAR; HEK293, different doses and times of ATRA, with 100 μM liarozole) | increase of YO-PRO-1 labeling (RGCs in WT retina; WT mice, 3-7 days after intravitreal injection, versus vehicle) [fold] | percentage of YO-PRO-1 positive cells (RGCs in WT retina; WT mice, intravitreal injection 3-7 days before, ATRA 100 nM, liarozole 100 μM, retinaldehyde 1 μM, DEAB 20 μM, mean±SEM) [%] | reversibility of ATRA-induced YO-PRO-1 loading (RGCs in WT retina; WT retina, intravitreal ATRA 100 nM) | Yo-Pro-1 labeling of WT-RGCs, result in words (RGCs in WT retina; WT retina, substance injected intravitreally alone) | QAQ photosensitization of rd1 retina, in words (RGCs in rd1 retina; rd1 mice injected intravitreally with BMS-493) | Photoswitch Index (PI) with BENAQ (RGCs in rd1 retina; rd1 retina treated with BMS-493 (intravitreal, 3-7 days), BENAQ, white light/darkness, mean±SEM) | Photoswitch Index (PI) with QAQ (RGCs in rd1 retina; rd1 retina treated with BMS-493 (intravitreal, 3-7 days), QAQ 300 μM, 380/500 nm, mean±SEM) | percentage of YO-PRO-1 positive cells, ATRA-induced labeling with blocker (RGCs in WT retina; WT mice injected with ATRA, TNP-ATP bath-applied ex vivo or BMS-493 co-injected, mean±SEM) [%] |
| --- | --- | --- | --- | --- | --- | --- | --- | --- | --- | --- |
| CC1=C(/C=C/C(C)=C/C=C/C(C)=C/C(=O)O)C(C)(C)CCC1 [ATRA, all-trans retinoic acid] | significant increase in GFP expression only following ATRA treatment; also recorded: induced GFP expression | dose- and time-dependent | 2 | 15.80±3.10 | reversible; also recorded: disappeared 6 weeks after injection | significantly increased the fraction of cells incorporating Yo-Pro-1 | – | – | – | – |
| CC1(C)CC=C(C#Cc2ccccc2)c2cc(/C=C/c3ccc(C(=O)O)cc3)ccc21 [BMS-493] | – | – | – | – | – | – | prevented QAQ photosensitization | 0.35±0.05 | 0.15±0.06 | 5.74±1.54 |
